Results reported in US20260248820A1, “USES OF HYDROGENATED CANNABIDIOL (H4CBD) AND ADVANCED METABOLIC SYNDROME” (The Regents of the University of California, priority 2022, published 2026).

Key:
[1] = system: Otsuka Long-Evans Tokushima Fatty (OLETF) rat; assay: Oral Glucose Tolerance Test (OGTT); type: in vivo
Description: Male lean Long Evan's Tokushima Otsuka (LETO) rats and obese Otsuka Long Evans Tokushima Fatty (OLETF) rats (Japan SLC Inc., Hamamatsu, Japan), both 14 weeks of age were assigned to the following groups (n=8/group): (1) vehicle-dosed LETO (LETO), (2) vehicle-dosed OLETF (OLETF), and (3) H4CBD-treated (200 mg/kg/day×4 weeks) OLETF (H4CBD). Rats were maintained in a specific pathogen-free, climate-controlled facility on a 12-hour light: dark cycle (07:00-19:00 and 19:00-07:00, respectively). All animals had free access to water and were fed rat chow (Teklad Global; fat 9.0%; carbohydrate 44.9%; protein 19.0%) ad libitum. Treatment intervention was initiated at 41 weeks of age. Phenotypic data (i.e. body mass, food intake) was collected daily for all animals.
Purified H4CBD (>99%) was suspended in food grade sesame oil and administered by oral gavage at a dose of 200 mg/kg.
Oral Glucose Tolerance Test (OGTT)—At approximately 45 weeks of age and following an overnight fast, oGTTs were performed as previously described. The positive incremental areas under the curve for glucose (AUCglucose) and insulin (AUCinsulin) were calculated by the trapezoidal method. Insulin resistance index (IRI) was calculated by AUCglucosex AUCinsulin/100, as previously described.

AT1 mRNA = assay: Real-time qPCR on cardiac tissue, AT1; type: in vivo, rat
Description: Real-Time qPCR—Gene expression was quantified by qPCR on cardiac tissue. Primers used were acquired from Integrated DNA Technologies and listed here 5′-3′: angiotensin MAS1 receptor (Mas1) Fw: […] (SEQ ID NO:1), Rv: […] (SEQ ID NO:2).

Collagen Type IV = assay: Liver Type IV collagen deposition (liver damage); type: in vivo, rat; details: collagen 71% higher in OLETF than LETO
Description: Type IV collagen deposition is an indicator of liver fibrosis, which is useful in the diagnosis of NAFLD in elderly individuals and models of NAFLD like OLETF.

CCCCCc1cc(O)c(C2CC(C)CCC2C(C)C)c(O)c1 (stereo not shown) [H4CBD, 2-(2-isopropyl-5-methylcyclohexyl)-5-pentylbenzene-1,3-diol]
Glucose response curve to OGTT ([1]; % baseline, p<0.01 OLETF vs. H4CBD): lowest
Reduction of insulin resistance index (IRI) ([1]; IRI = AUCglucose x AUCinsulin/100, p<0.05 OLETF vs. H4CBD): 23%
Time of blood glucose peak after glucose bolus ([1]; OGTT at about 45 weeks, overnight fast, treated and non-treated OLETF): 60 min
Reduction of overall AUCglucose from OLETF ([1]; OGTT, p<0.001): 29%
Plasma insulin response to OGTT ([1]; response abolished in OLETF): not rescued
AT1 mRNA expression higher than control OLETF (AT1 mRNA): 49%
Liver collagen (Type IV) deposition (Collagen Type IV): no effect on collagen levels
